Experimental data from patent US20080200448A1, “New Pyridine Analogues VIII 518” (ASTRAZENECA AB, priority 2007, published 2008).

These molecules were tested against T1, P2Y12 receptor (Homo sapiens, UniProt Q9H244) (assay: Functional inhibition of 2-Me-S-ADP induced P2Y12 signalling (35S-GTPγS binding, cell membranes)). Conditions: 35S-GTPγS assay, membranes, EC80 concentration of 2-methyl-thio-adenosine diphosphate, 30° C. for 45 min; read-out: GTPγS (IC50 μM).
T1 construct: expressed in transfected cells; host or cells: CHO cells (membrane preparation)
Format: biochemical
Method in brief: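 Membranes (5 μg) from P2Y12-transfected CHO cells in pH 7.4 HEPES buffer with 10 μM GDP and saponin were stimulated with an EC80 of 2-methyl-thio-ADP plus compound and ^35S-GTPγS for 45 min at 30° C. Filter-retained ^35S-GTPγS was counted, normalised between agonist and no-agonist activity, and IC50 taken from a four-parameter fit.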

T1 sequence (Q9H244 whole entry): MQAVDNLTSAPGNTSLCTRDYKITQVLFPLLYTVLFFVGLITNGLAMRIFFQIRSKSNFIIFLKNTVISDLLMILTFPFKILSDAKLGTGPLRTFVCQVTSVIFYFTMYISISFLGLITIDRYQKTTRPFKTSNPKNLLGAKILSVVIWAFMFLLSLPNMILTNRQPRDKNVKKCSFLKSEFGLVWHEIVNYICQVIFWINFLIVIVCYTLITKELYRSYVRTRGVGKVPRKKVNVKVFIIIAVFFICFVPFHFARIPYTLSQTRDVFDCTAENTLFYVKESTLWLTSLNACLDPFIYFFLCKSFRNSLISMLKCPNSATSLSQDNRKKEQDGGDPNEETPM

Row | Structure (SMILES) | IC50
1 | CCOC(=O)c1cc(C#N)c(N2CCC(C(=O)NS(=O)(=O)Cc3ccccc3)CC2)nc1OCC(=O)NC [Example 25, Ethyl 6-{4-[(benzylsulfonyl)carbamoyl]piperidin-1-yl}-5-cyano-2-[2-(methylamino)-2-oxoethoxy]nicotinate] | 0.075 µM
2 | CCOC(=O)CCCc1nc(N2CCC(C(=O)NS(=O)(=O)Cc3ccccc3)CC2)c(C#N)cc1C(=O)OCC [Example 106, Ethyl 6-{4-[(benzylsulfonyl)carbamoyl]piperidin-1-yl}-5-cyano-2-(4-ethoxy-4-oxobutyl)nicotinate] | 0.066 µM
3 | CCOC(=O)CSc1nc(N2CCC(C(=O)NS(=O)(=O)Cc3ccc(Cl)cc3Cl)CC2)c(C#N)cc1C(=O)OCC [Example 109, Ethyl 5-cyano-6-(4-{[(2,4-dichlorobenzyl)sulfonyl]carbamoyl}piperidin-1-yl)-2-[(2-ethoxy-2-oxoethyl)thio]nicotinate] | 0.062 µM
4 | CCOC(=O)c1cc(C#N)c(N2CC(C(=O)NS(=O)(=O)Cc3ccccc3)C2)nc1CSCCO [Example 31, Ethyl 6-{3-[(benzylsulfonyl)carbamoyl]azetidin-1-yl}-5-cyano-2-{[(2-hydroxyethyl)thio]methyl}nicotinate] | 0.066 µM
5 | CCOC(=O)c1cc(C#N)c(N2CCC(C(=O)NS(=O)(=O)Cc3ccccc3)CC2)nc1OCC(=O)N(C)C [Example 125, Ethyl 6-{4-[(benzylsulfonyl)carbamoyl]piperidin-1-yl}-5-cyano-2-[2-(dimethylamino)-2-oxoethoxy]nicotinate] | 0.065 µM
6 | CCOC(=O)c1cc(C#N)c(N2CCC(C(=O)NS(=O)(=O)CC3CCC(C)CC3)CC2)nc1CN1CCCC1=O (stereo not shown) [Example 37, Ethyl 5-cyano-6-[4-({[(4-methylcyclohexyl)methyl]sulfonyl}carbamoyl)piperidin-1-yl]-2-[(2-oxopyrrolidin-1-yl)methyl]nicotinate] | 0.03 µM
7 | CCCOC(=O)c1cc(Cl)c(N2CCC(C(=O)NS(=O)(=O)N(C)c3ccc(F)cc3)CC2)nc1CN1CCCC1=O [Example 95, Propyl 5-chloro-6-[4-({[(4-fluorophenyl)(methyl)amino]sulfonyl}carbamoyl)piperidin-1-yl]-2-[(2-oxopyrrolidin-1-yl)methyl]nicotinate] | 0.155 µM
8 | CCOC(=O)c1cc(C#N)c(N2CCC(C(=O)NS(=O)(=O)Cc3ccc(F)cc3)CC2)nc1CN1CCCC1=O [Example 40, Ethyl 5-cyano-6-(4-{[(4-fluorobenzyl)sulfonyl]carbamoyl}piperidin-1-yl)-2-[(2-oxopyrrolidin-1-yl)methyl]nicotinate] | 0.025 µM
9 | CCOC(=O)c1cc(C#N)c(N2CCC(C(=O)NS(=O)(=O)Cc3ccccc3)CC2)nc1OCCN1CCCC1=O [Example 114, Ethyl 6-{4-[(benzylsulfonyl)carbamoyl]piperidin-1-yl}-5-cyano-2-[2-(2-oxopyrrolidin-1-yl)ethoxy]nicotinate] | 0.027 µM
10 | CCOC(=O)c1cc(C#N)c(N2CCC(C(=O)NS(=O)(=O)Cc3ccccc3)CC2)nc1SCC(=O)OC(C)C [Example 111, Ethyl 6-{4-[(benzylsulfonyl)carbamoyl]piperidin-1-yl}-5-cyano-2-[(2-isopropoxy-2-oxoethyl)thio]nicotinate] | 0.016 µM
11 | CCOC(=O)c1cc(C#N)c(N2CCC(C(=O)NS(=O)(=O)Cc3ccc(F)cc3F)CC2)nc1CN1CCCCC1=O [Example 67, Ethyl 5-cyano-6-(4-{[(2,4-difluorobenzyl)sulfonyl]carbamoyl}piperidin-1-yl)-2-[(2-oxopiperidin-1-yl)methyl]nicotinate] | 0.02 µM
12 | CCOC(=O)c1cc(C#N)c(N2CCC(C(=O)NS(=O)(=O)Cc3ccc(F)cc3)CC2)nc1CN1CCCCC1=O [Example 62, Ethyl 5-cyano-6-(4-{[(4-fluorobenzyl)sulfonyl]carbamoyl}piperidin-1-yl)-2-[(2-oxopiperidin-1-yl)methyl]nicotinate] | 0.148 µM
13 | CCOC(=O)c1cc(Cl)c(N2CCC(C(=O)NS(=O)(=O)Cc3ccc(F)cc3F)CC2)nc1CN1CCCC1=O [Example 89, Ethyl 5-chloro-6-(4-{[(2,4-difluorobenzyl)sulfonyl]carbamoyl}piperidin-1-yl)-2-[(2-oxopyrrolidin-1-yl)methyl]nicotinate] | 0.033 µM
14 | CCOC(=O)c1cc(C#N)c(N2CCC(C(=O)NS(=O)(=O)Cc3ccc(Cl)cc3Cl)CC2)nc1CN1CCCC1=O [Example 41, Ethyl 5-cyano-6-(4-{[(2,4-dichlorobenzyl)sulfonyl]carbamoyl}piperidin-1-yl)-2-[(2-oxopyrrolidin-1-yl)methyl]nicotinate] | 0.016 µM
15 | CCOC(=O)c1cc(C#N)c(N2CC(C(=O)NS(=O)(=O)Cc3ccccc3)C2)nc1CN1CCCC1=O [Example 90, Ethyl 6-{3-[(benzylsulfonyl)carbamoyl]azetidin-1-yl}-5-cyano-2-[(2-oxopyrrolidin-1-yl)methyl]nicotinate] | 0.019 µM
16 | CCOC(=O)CCc1nc(N2CCC(C(=O)NS(=O)(=O)Cc3ccccc3)CC2)c(C#N)cc1C(=O)OCC [Example 107, Ethyl 6-{4-[(benzylsulfonyl)carbamoyl]piperidin-1-yl}-5-cyano-2-(3-ethoxy-3-oxopropyl)nicotinate] | 0.056 µM

Row | Structure (SMILES) | IC50
17 | CCOC(=O)c1cc(C#N)c(N2CC(C(=O)NS(=O)(=O)Cc3ccccc3)C2)nc1CN1C(=O)CCC1=O [Example 13, Ethyl 6-{3-[(benzylsulfonyl)carbamoyl]azetidin-1-yl}-5-cyano-2-[(2,5-dioxopyrrolidin-1-yl)methyl]nicotinate] | 0.064 µM
18 | CCOC(=O)c1cc(C#N)c(N2CCC(C(=O)NS(=O)(=O)Cc3ccccc3)CC2)nc1CSCCO [Example 28, Ethyl 6-{4-[(benzylsulfonyl)carbamoyl]piperidin-1-yl}-5-cyano-2-{[(2-hydroxyethyl)thio]methyl}nicotinate] | 0.037 µM
19 | CCOC(=O)c1cc(C#N)c(N2CCC(C(=O)NS(=O)(=O)Cc3ccccc3)CC2)nc1OCCO [Example 18, Ethyl 6-{4-[(benzylsulfonyl)carbamoyl]piperidin-1-yl}-5-cyano-2-(2-hydroxyethoxy)nicotinate] | 0.031 µM
20 | CCOC(=O)c1cc(C#N)c(N2CCC(C(=O)NS(=O)(=O)Cc3ccccc3)CC2)nc1CCC(C)=O [Example 112, Ethyl 6-{4-[(benzylsulfonyl)carbamoyl]piperidin-1-yl}-5-cyano-2-(3-oxobutyl)nicotinate] | 0.022 µM
21 | CCOC(=O)c1cc(C#N)c(N2CCC(C(=O)NS(=O)(=O)Cc3ccccc3)CC2)nc1SCCO [Example 19, Ethyl 6-{4-[(benzylsulfonyl)carbamoyl]piperidin-1-yl}-5-cyano-2-[(2-hydroxyethyl)thio]nicotinate] | 0.016 µM
22 | CCOC(=O)c1cc(C#N)c(N2CCC(C(=O)NS(=O)(=O)Cc3ccccc3)CC2)nc1CN1CCCC1 [Example 3, Ethyl 6-{4-[(benzylsulfonyl)carbamoyl]piperidin-1-yl}-5-cyano-2-(pyrrolidin-1-ylmethyl)nicotinate] | 0.545 µM
23 | CCOC(=O)c1cc(Cl)c(N2CCC(C(=O)NS(=O)(=O)Cc3ccc(C)cc3)CC2)nc1CN1CCCC1=O [Example 87, Ethyl 5-chloro-6-(4-{[(4-methylbenzyl)sulfonyl]carbamoyl}piperidin-1-yl)-2-[(2-oxopyrrolidin-1-yl)methyl]nicotinate] | 0.037 µM
24 | CC(C)OC(=O)c1cc(C#N)c(N2CCC(C(=O)NS(=O)(=O)CC3CCCC3)CC2)nc1CN1CCCC1=O [Example 47, Isopropyl 5-cyano-6-(4-{[(cyclopentylmethyl)sulfonyl]carbamoyl}piperidin-1-yl)-2-[(2-oxopyrrolidin-1-yl)methyl]nicotinate] | 0.065 µM
25 | CCOC(=O)c1cc(C#N)c(N2CCC(C(=O)NS(=O)(=O)Cc3ccc(C(C)C)cc3)CC2)nc1CN1CCCCC1=O [Example 69, Ethyl 5-cyano-6-(4-{[(4-isopropylbenzyl)sulfonyl]carbamoyl}piperidin-1-yl)-2-[(2-oxopiperidin-1-yl)methyl]nicotinate] | 0.082 µM
26 | CC(C)OC(=O)c1cc(C#N)c(N2CCC(C(=O)NS(=O)(=O)CC3CCCCC3)CC2)nc1CN1CCCC1=O [Example 82, Isopropyl 5-cyano-6-(4-{[(cyclohexylmethyl)sulfonyl]carbamoyl}piperidin-1-yl)-2-[(2-oxopyrrolidin-1-yl)methyl]nicotinate] | 0.028 µM
27 | CCOC(=O)c1cc(C#N)c(N2CCC(C(=O)NS(=O)(=O)Cc3ccccc3)CC2)nc1CSCC(=O)O [Example 115, ({[6-{4-[(Benzylsulfonyl)carbamoyl]piperidin-1-yl}-5-cyano-3-(ethoxycarbonyl)pyridin-2-yl]methyl}thio)acetic acid] | 0.035 µM
28 | CCOC(=O)c1cc(C#N)c(N2CCC(C(=O)NS(=O)(=O)Cc3ccc(SC(F)(F)F)cc3)CC2)nc1CN1CCCC1=O [Example 66, Ethyl 5-cyano-2-[(2-oxopyrrolidin-1-yl)methyl]-6-{4-[({4-[(trifluoromethyl)thio]benzyl}sulfonyl)carbamoyl]piperidin-1-yl}nicotinate] | 0.033 µM
29 | CCOC(=O)c1cc(C#N)c(N2CC(C(=O)NS(=O)(=O)Cc3ccccc3)C2)nc1CSCC [Example 30, Ethyl 6-{3-[(benzylsulfonyl)carbamoyl]azetidin-1-yl}-5-cyano-2-[(ethylthio)methyl]nicotinate] | 0.106 µM
30 | CCOC(=O)c1cc(C#N)c(N2CCC(C(=O)NS(=O)(=O)Cc3ccc(C)cc3)CC2)nc1CN1CCCC1=O [Example 42, Ethyl 5-cyano-6-(4-{[(4-methylbenzyl)sulfonyl]carbamoyl}piperidin-1-yl)-2-[(2-oxopyrrolidin-1-yl)methyl]nicotinate] | 0.012 µM
31 | CCOC(=O)c1cc(C#N)c(N2CCC(C(=O)NS(=O)(=O)Cc3ccc(SC(F)(F)F)cc3)CC2)nc1CN1CCCCC1=O [Example 101, Ethyl 5-cyano-2-[(2-oxopiperidin-1-yl)methyl]-6-{4-[({4-[(trifluoromethyl)thio]benzyl}sulfonyl)carbamoyl]piperidin-1-yl}nicotinate] | 0.166 µM
